Our source for the T/C values is ChEMBL document CHEMBL3272027, “Chemoimmunotherapy of cancer” (1977).

Holding throughout (assay type): functional
In assay [1] the test system is P388. As to the kind of experiment: In vivo antitumor activity against mouse P388 cells in 3PS31 test system at 12.5 mg/kg administered on day 1, 5 and 9 relative to control.
The subject of assay [2] is P388. The assay can be described thus: In vivo antitumor activity against mouse P388 cells in 3PS31 test system at 50 mg/kg administered on day 1, 5 and 9 relative to control.
Assay [3] relates to P388. The assay can be described thus: In vivo antitumor activity against mouse P388 cells in 3PS31 test system at 25 mg/kg administered on day 1, 5 and 9 relative to control.
Assay [4] deals with P388. As to the kind of experiment: In vivo antitumor activity against mouse P388 cells in 3PS31 test system at 6.25 mg/kg administered on day 1, 5 and 9 relative to control.
In assay [5] the test system is P388. As to the kind of experiment: In vivo antitumor activity against mouse P388 cells in 3PS31 test system at 75 mg/kg administered on day 1, 5 and 9 relative to control.

A word on the T/C: it is the result in the treated group divided by that in the control group, in per cent. For `O=C(O)c1cc([N+](=O)[O-])cc([N+](=O)[O-])c1NCCSCCCl`, the T/C in the assay on P388 [1] is 102%; in the assay with P388 [2], 106%; in the assay with P388 [3] it was 111%.

With `O=[N+]([O-])c1cc([N+](=O)[O-])c(NCCCSCCCl)c(S(=O)(=O)O)c1`, the T/C was found to be 132% in the assay on P388 [1], 111% in the assay with P388 [4], 128% in the assay with P388 [2] and 136% in the assay with P388 [3].

As to `O=[N+]([O-])c1cc([N+](=O)[O-])c(NCCSCCCl)c(S(=O)(=O)O)c1`, the T/C in the assay with P388 [1] worked out at 111%; in the assay on P388 [2], 124%; with P388 [3], 124%; with P388 [5], 118%.
